In US7612065B2, “Inhibitors of c-JUN N-terminal kinases (JNK)” (priority 2007, dated 2009):

Target: T1, JNK3 (Homo sapiens, UniProt P53779)
T1 construct: One such construct encodes amino acid residues Ser40-Glu402 of JNK3α1 and is preceded by Met and Gly residues; Met-Gly (initiation methionine plus glycine added for the NcoI site); made in house; host or cells: E. coli BL21 (DE3)
Experiment: JNK inhibition assay: spectrophotometric coupled-enzyme assay with activated JNK3
Type: biochemical
Details: activated JNK3 10 nM, 10 μM ATP, 200 μM EGF receptor peptide, 30° C., competitive inhibition model
Text: A BLAST search of the EST database using the published JNK3α1 cDNA as a query identified an EST clone (#632588) that contained the entire coding sequence for human JNK3α1. Polymerase chain reactions (PCR) using pfu polymerase (Strategene) were used to introduce restriction sites into the cDNA for cloning into the pET-15B expression vector at the NcoI and BamHI sites. The protein was expressed in E. coli. […] This truncation corresponds to Ser 2 of JNK1 and JNK2 proteins, and is preceded by a methionine (initiation) and a glycine residue. The glycine residue was added in order to introduce an NcoI site for cloning into the expression vector. In addition, systematic C-terminal truncations were performed by PCR to identify a construct that give rise to diffraction-quality crystals.
5 mg of JNK3 was diluted to 0.5 mg/ml in 50 mM HEPES buffer, pH 7.5, containing 100 mM NaCl, 5 mM DTT, 20 mM MgCl2 and 1 mM ATP. GST-MKK7(DD) was added at a molar ratio of 1:2.5 GST-MKK7:JNK3. After incubation for 30 minutes at 25° C., the reaction mixture was concentrated 5-fold by ultrafiltration in a Centriprep-30 (Amicon, Beverly, Mass.), diluted to 10 ml and an additional 1 mM ATP added. This procedure was repeated three times to remove ADP and replenish ATP. The final addition of ATP was 5 mM and the mixture incubated overnight at 4° C.
The activated JNK3/GST-MKK7(DD) reaction mixture was exchanged into 50 mM HEPES buffer, pH 7.5, containing 5 mM DTT and 5% glycerol (w/v) by dialysis or ultrafiltration. The reaction mixture was adjusted to 1.1 M potassium phosphate, pH 7.5, and purified by hydrophobic interaction chromatography (at 25° C.) using a Rainin Hydropore column. […] Activated JNK3 (i.e. doubly phosphorylated JNK3) was stored at −70° C. at 0.25-1 mg/ml.
Compounds were assayed for the inhibition of JNK3 by a spectrophotometric coupled-enzyme assay. In this assay, a fixed concentration of activated JNK3 (10 nM) was incubated with various concentrations of a potential inhibitor dissolved in DMSO for 10 minutes at 30° C. in a buffer containing 0.1 M HEPES buffer, pH 7.5, containing 10 mM MgCl2, 2.5 mM phosphoenolpyruvate, 200 μM NADH, 150 μg/mL pyruvate kinase, 50 μg/mL lactate dehydrogenase, and 200 μM EGF receptor peptide. […] The reaction was initiated by the addition of 10 μM ATP and the assay plate is inserted into the spectrophotometer's assay plate compartment that was maintained at 30° C. The decrease of absorbance at 340 nm was monitored as a function of time. The rate data as a function of inhibitor concentration was fitted to competitive inhibition kinetic model to determine the Ki.

T1 sequence (P53779 40-402): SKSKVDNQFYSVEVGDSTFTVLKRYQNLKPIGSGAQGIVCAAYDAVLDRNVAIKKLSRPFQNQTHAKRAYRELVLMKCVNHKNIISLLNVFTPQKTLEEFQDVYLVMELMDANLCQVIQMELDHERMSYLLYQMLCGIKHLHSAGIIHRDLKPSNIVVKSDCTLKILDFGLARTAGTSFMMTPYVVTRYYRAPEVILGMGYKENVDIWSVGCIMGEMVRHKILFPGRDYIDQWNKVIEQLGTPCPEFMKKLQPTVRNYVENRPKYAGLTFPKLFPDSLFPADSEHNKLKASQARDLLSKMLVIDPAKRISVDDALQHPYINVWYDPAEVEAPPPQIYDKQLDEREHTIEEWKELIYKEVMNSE

SMILES	Ki
Cc1ccc2c(c1)/C(=N/O)C(=O)N2Cc1cccc(C(F)(F)F)c1 [Compound 1]	≥ 1000 nM
O=C1/C(=N\O)c2ccccc2N1Cc1c(Cl)cccc1Cl [Compound 2]	< 1000 nM
O=C1/C(=N\O)c2cc(Cl)ccc2N1Cc1ccc(Cl)cc1 [Compound 3]	≥ 1000 nM
O=C1/C(=N\O)c2cc(Cl)ccc2N1Cc1c(Cl)cccc1Cl [Compound 4]	< 1000 nM
O=C1/C(=N\O)c2ccccc2N1Cc1ccc(Cl)c(Cl)c1 [Compound 5]	< 1000 nM
O=C1/C(=N\O)c2ccccc2N1Cc1cccc(C(F)(F)F)c1 [Compound 6]	≥ 1000 nM
O=C1/C(=N\O)c2ccccc2N1Cc1ccc(Cl)cc1Cl [Compound 7]	< 1000 nM
Cc1ccc(CN2C(=O)/C(=N\O)c3ccccc32)cc1 [Compound 8]	≥ 1000 nM
O=C1/C(=N\O)c2ccccc2N1Cc1cccc(Cl)c1 [Compound 9]	≥ 1000 nM
O=C1/C(=N\O)c2ccccc2N1Cc1ccc(Cl)cc1 [Compound 10]	≥ 1000 nM
O=C1/C(=N\O)c2cc([N+](=O)[O-])ccc2N1Cc1ccc(Cl)cc1Cl [Compound 11]	≥ 1000 nM
O=C1/C(=N\O)c2cc([N+](=O)[O-])ccc2N1Cc1ccc(Cl)cc1 [Compound 12]	≥ 1000 nM
O=C1/C(=N\O)c2cc(Cl)ccc2N1Cc1ccc(Cl)c(Cl)c1 [Compound 13]	< 1000 nM
Cc1ccc2c(c1)/C(=N/O)C(=O)N2Cc1ccc(Cl)cc1 [Compound 14]	≥ 1000 nM
O=C1/C(=N\O)c2cc(Cl)ccc2N1Cc1cccc(C(F)(F)F)c1 [Compound 15]	≥ 1000 nM
O=C1/C(=N\O)c2ccccc2N1Cc1ccc(F)cc1 [Compound 17]	≥ 1000 nM
O=C1/C(=N\O)c2ccccc2N1Cc1ccc([N+](=O)[O-])cc1 [Compound 18]	≥ 1000 nM
Cc1cccc(CN2C(=O)/C(=N\O)c3ccccc32)c1 [Compound 19]	≥ 1000 nM
O=C1/C(=N\O)c2ccccc2N1Cc1cccc(F)c1 [Compound 20]	≥ 1000 nM
O=C1/C(=N\O)c2ccccc2N1Cc1ccccc1F [Compound 21]	≥ 1000 nM

SMILES	Ki
O=C1/C(=N\O)c2cc(Br)ccc2N1Cc1ccccc1 [Compound 23]	≥ 1000 nM
O=C1/C(=N\O)c2cc(Br)ccc2N1Cc1ccc(F)cc1 [Compound 24]	≥ 1000 nM
O=C1/C(=N\O)c2cc(Br)ccc2N1Cc1ccc([N+](=O)[O-])cc1 [Compound 25]	≥ 1000 nM
Cc1ccc(CN2C(=O)/C(=N\O)c3cc(Br)ccc32)cc1 [Compound 26]	≥ 1000 nM
Cc1cccc(CN2C(=O)/C(=N\O)c3cc(Br)ccc32)c1 [Compound 27]	≥ 1000 nM
O=C1/C(=N\O)c2cc(Br)ccc2N1Cc1cccc(F)c1 [Compound 28]	≥ 1000 nM
O=C1/C(=N\O)c2cc(Br)ccc2N1Cc1ccccc1F [Compound 29]	≥ 1000 nM
Cc1ccc(CN2C(=O)/C(=N\O)c3cc([N+](=O)[O-])ccc32)cc1 [Compound 33]	≥ 1000 nM
Cc1cccc(CN2C(=O)/C(=N\O)c3cc([N+](=O)[O-])ccc32)c1 [Compound 34]	≥ 1000 nM
Cc1ccc2c(c1)/C(=N/O)C(=O)N2Cc1ccc([N+](=O)[O-])cc1 [Compound 39]	≥ 1000 nM
O=C1/C(=N\O)c2cc(Cl)ccc2N1Cc1ccccc1 [Compound 45]	≥ 1000 nM
O=C1/C(=N\O)c2cc(Cl)ccc2N1Cc1ccc(F)cc1 [Compound 46]	≥ 1000 nM
Cc1ccc(CN2C(=O)/C(=N\O)c3cc(Cl)ccc32)cc1 [Compound 48]	≥ 1000 nM
Cc1cccc(CN2C(=O)/C(=N\O)c3cc(Cl)ccc32)c1 [Compound 49]	≥ 1000 nM
O=C1/C(=N\O)c2cc(Cl)ccc2N1Cc1cccc(F)c1 [Compound 50]	≥ 1000 nM
O=C1/C(=N\O)c2cc(Cl)ccc2N1Cc1ccccc1F [Compound 51]	≥ 1000 nM
O=C1/C(=N\O)c2cc(F)ccc2N1Cc1ccc(F)cc1 [Compound 54]	≥ 1000 nM
O=C1/C(=N\O)c2cc(F)ccc2N1Cc1ccc([N+](=O)[O-])cc1 [Compound 55]	≥ 1000 nM
Cc1ccc(CN2C(=O)/C(=N\O)c3cc(F)ccc32)cc1 [Compound 56]	≥ 1000 nM
